Assay results as given in paper PMC4207771, “Identification and Characterization of Novel Renal Sensory Receptors” (PLoS ONE, 2014).
Where two headings read alike, the source gives them in different places.

What was measured:
[1] = test system: Olfr693; assay: dual-luciferase (cAMP/CREB reporter) ligand screen, Olfr693 in HEK293T cells; format: cell-based, mouse; design: key: ‘+’ or ‘–‘ in each column indicates if the olfactory receptor responded or had no effect to that specific chemical; -: ‘+’ or ‘–‘ in each column indicates if the olfactory receptor responded or had no effect to that specific chemical
[2] = test system: Olfr99; assay: dual-luciferase (cAMP/CREB reporter) ligand screen, Olfr99 in HEK293T cells; format: cell-based, mouse; design: key: ‘+’ or ‘–‘ in each column indicates if the olfactory receptor responded or had no effect to that specific chemical; -: ‘+’ or ‘–‘ in each column indicates if the olfactory receptor responded or had no effect to that specific chemical
[3] = biological target: T1, Olfr31 (Mus musculus, UniProt Q3KPA7); assay: dual-luciferase (cAMP/CREB reporter) ligand screen, Olfr31 in HEK293T cells; format: cell-based
T1 construct: expressed in transfected cells; host or cells: HEK293T, co-transfected with RTP1S
T1 sequence (Q3KPA7 1-317): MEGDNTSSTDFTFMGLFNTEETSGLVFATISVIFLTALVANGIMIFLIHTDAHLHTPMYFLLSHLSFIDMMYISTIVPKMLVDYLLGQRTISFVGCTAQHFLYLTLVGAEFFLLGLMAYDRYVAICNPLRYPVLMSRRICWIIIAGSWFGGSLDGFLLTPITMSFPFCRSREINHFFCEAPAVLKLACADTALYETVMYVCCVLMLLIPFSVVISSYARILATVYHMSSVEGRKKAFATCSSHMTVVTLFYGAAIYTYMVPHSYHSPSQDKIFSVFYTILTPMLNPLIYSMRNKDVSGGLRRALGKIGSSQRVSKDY

[4] = test system: Olfr545; assay: dual-luciferase (cAMP/CREB reporter) ligand screen, Olfr545 in HEK293T cells; format: cell-based, mouse; design: key to Olfr545 response in dual-luciferase assay: ‘+’ or ‘–‘ in each column indicates if the olfactory receptor responded or had no effect to that specific chemical; -: ‘+’ or ‘–‘ in each column indicates if the olfactory receptor responded or had no effect to that specific chemical
[5] = biological target: T2, Olfr691 (Mus musculus, UniProt Q8VGW5); assay: dual-luciferase (cAMP/CREB reporter) ligand screen, Olfr691 in HEK293T cells; format: cell-based; details: for Relative response (% of 4-pentenoate response) at 500 µM: HEK-293T, 4 h, 0.5 mM ligand, normalized to the response of Olfr691 to the strongest ligand; for Olfr691 response (in words): luciferase assay, co-expressed with RTP1S
T2 construct: Lucy (N); expressed in transfected cells; host or cells: HEK293T, co-transfected with RTP1S
T2 sequence (Q8VGW5 1-322): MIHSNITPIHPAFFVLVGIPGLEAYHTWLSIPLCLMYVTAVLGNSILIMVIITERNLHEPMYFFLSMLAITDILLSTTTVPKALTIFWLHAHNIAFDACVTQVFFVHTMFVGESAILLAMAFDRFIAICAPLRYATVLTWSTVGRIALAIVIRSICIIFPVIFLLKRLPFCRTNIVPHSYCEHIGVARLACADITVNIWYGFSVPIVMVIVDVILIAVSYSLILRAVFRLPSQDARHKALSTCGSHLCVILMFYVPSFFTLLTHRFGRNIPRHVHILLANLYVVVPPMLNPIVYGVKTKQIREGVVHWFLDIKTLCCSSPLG

[6] = chemicals tested individually, screened at 500uM (* also at 100uM)

Olfr31 response in dual-luciferase assay [3, 6]	Olfr691 response in dual-luciferase assay [5, 6]	Relative response (% of 4-pentenoate response) at 500 µM [5]	EC50 ([5]; Olfr691 co-expressed with RTP1S in HEK293T cells, 10 µM to 7.5 mM)	Olfr691 response (in words) ([5]; listed as 4-Pentenoate)	Compound	Olfr693 response in dual-luciferase assay [1, 6]	Olfr99 response in dual-luciferase assay [2, 6]	Olfr545 response in dual-luciferase assay [4, 6]	Olfr691 response (in words) ([5]; listed as 4-pentenoate)	Olfr693 response in dual-luciferase assay [1]	Olfr99 response in dual-luciferase assay [2]	Olfr31 response in dual-luciferase assay [3]	Olfr545 response in dual-luciferase assay [4]	Olfr691 response in dual-luciferase assay [5]
-	-				Cc1cncc(C)n1 [2,6-Dimethylpyrazine]	-	-	-						
-	-				CCCCCC(C)O (stereo not shown) [2-Heptanol]	-	-	-						
-	-				CCCC1CCOC(C)S1 (stereo not shown) [2-Methyl-4-propyl-1,3-oxathiane]	-	-	-						
-	+	76 ± 3.6%			CCCCC(CC)C(=O)O (stereo not shown) [2-ethylhexanoate]	-	-	-						
-	-				CCCCCC(C)=O [2-heptanone]	-	-	-						
-	-				Cc1ccco1 [2-methylfuran]	-	-	-						
-	-				CC(C)CCO [3-methyl-1-butanol]	-	-	-						
-	-				CCCCCC(=O)CC [3-octanone]	-	-	-						
-	+	100 ± 10.6%	901 µM	induced the strongest response	C=CCCC(=O)O [4-pentenoic acid]	-	-	-	induced the strongest cAMP responses at all doses					
-	-				CC(C)(C)C1CCC(O)CC1 (stereo not shown) [4-tert-butylcyclohexanol]	-	-	-						
-	-				O=C1CCCCCCCCCCCCCCCO1 [16-hexadecanolide]	-	-	-						
-	-				C=C(C)[C@@H]1CC[C@@H](C)C(=O)C1 [(+)Dihydrocarvone]	-	-	-						
-	-				COc1ccccc1 [Anisole]	-	-	-						
-	-				CC12CCC(CC1=O)C2(C)C (stereo not shown) [Camphor]	-	-	-						
-	-				C=C(C)C1CC=C(C)C(=O)C1 (stereo not shown) [Carvone]	-	-	-						
-	-				O=C(O)C1CCCCC1 [Cyclohexanecarboxylic acid]	-	-	-						
-	-				CC(C)=CCC/C(C)=C/CO [Geraniol]	-	-	-						
-	-				CC(C)C=O [Isobutyraldehyde]	-	-	-						
-	-				CC(C)(O)CCCC1=CCC(C=O)CC1 (stereo not shown) [Lyral]	-	-	-						
-	-				O=C(O)CC(=O)O [Malonate]	-	-	-						
-	-				O=C(O)C(=O)O [Oxalate]	-	-	-						
					[Na+].[Na+].[S-2] [Sodium Sulfide]					-	-	-	-	-
-	-				O=C(O)CCC(=O)O [Succinate]	-	-	-						

Compound	Olfr31 response in dual-luciferase assay [3, 6]	Olfr691 response in dual-luciferase assay [5, 6]	Relative response (% of 4-pentenoate response) at 500 µM [5]	EC50 ([5]; Olfr691 co-expressed with RTP1S in HEK293T cells, 10 µM to 7.5 mM)	Olfr691 response (in words) ([5]; listed as 4-Pentenoate)	Olfr693 response in dual-luciferase assay [1, 6]	Olfr99 response in dual-luciferase assay [2, 6]	Olfr545 response in dual-luciferase assay [4, 6]	Olfr691 response (in words) ([5]; listed as 4-pentenoate)	Olfr693 response in dual-luciferase assay [1]	Olfr99 response in dual-luciferase assay [2]	Olfr31 response in dual-luciferase assay [3]	Olfr545 response in dual-luciferase assay [4]	Olfr691 response in dual-luciferase assay [5]
Cc1ccc(C)s1 [2,5-Dimethylthiophene]	-	-				-	-	-						
O=C1Cc2ccccc2O1 [2-cumaranon]	-	-				-	-	-						
C=C[C@H](O)CCCCC [(R)-1-Octen-3-ol]	-	-				-	-	-						
CCCCCOC(=O)CCCCC [Amylhexanoate]	-	-				-	-	-						
C[C@H](CCC(=O)O)[C@H]1CC[C@H]2[C@@H]3CC[C@@H]4C[C@H](O)CC[C@]4(C)[C@H]3C[C@H](O)[C@]12C [Deoxyxholic acid]	-	-				-	-	-						
C=CC(C)(CCC=C(C)C)OC(C)=O (stereo not shown) [Linalyl acetate]	-	-				-	-	-						
CC(=O)C=O [Pyruvaldehyde]	-	-				-	-	-						
C[N+](C)(C)[O-] [Trimethylamine N-oxide]	-	-				-	-	-						
